PubChem BioAssay (NCI)
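Exposure lasted 48 hours, with cells grown in 96-well plates and compounds tested at five concentrations. Abbreviation: GI50, concentration required for 50% inhibition of growth. TGI marks complete inhibition of growth.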

Tests used:
Test in all cases: NCI anticancer screen, dose series, 48 h; in the data active = GI50 below about 0.43 µM; inactive = the rest
[1] = tested on: HS 578T breast
[2] = tested on: NCI-H226 lung
[3] = tested on: MALME-3M melanoma
[4] = tested on: SK-OV-3 ovarian
[5] = tested on: UO-31 renal
[6] = tested on: MDA-MB-435
[7] = tested on: OVCAR-3 ovarian
[8] = tested on: M14 melanoma
[9] = tested on: PC-3 prostate
[10] = tested on: OVCAR-8 ovarian
[11] = tested on: OVCAR-4 ovarian
[12] = tested on: HOP-62 NSCLC
[13] = tested on: LOX IMVI melanoma
[14] = tested on: CCRF-CEM leukemia
[15] = tested on: SK-MEL-5 melanoma
[16] = tested on: SF-539 CNS
[17] = tested on: A549 NSCLC
[18] = tested on: SK-MEL-28 melanoma
[19] = tested on: RXF 393 renal
[20] = tested on: SW-620 colon
[21] = tested on: RPMI-8226 leukemia
[22] = tested on: HCT-116 colon
[23] = tested on: K-562 leukemia
[24] = tested on: UACC-62 melanoma
[25] = tested on: HCT-15 colon
[26] = tested on: HCC-2998 colon
[27] = tested on: T-47D breast
[28] = tested on: MDA-MB-231 breast
[29] = tested on: NCI/ADR-RES ovarian
[30] = tested on: SR leukemia
[31] = tested on: SNB-19 CNS
[32] = tested on: MOLT-4 leukemia
[33] = tested on: SF-295 CNS
[34] = tested on: HOP-92 NSCLC
[35] = tested on: IGROV1 ovarian
[36] = tested on: ACHN renal
[37] = tested on: OVCAR-5 ovarian
[38] = tested on: NCI-H460 lung
[39] = tested on: KM12 colon
[40] = tested on: A498 renal
[41] = tested on: SF-268 CNS
[42] = tested on: COLO 205 colon
[43] = tested on: NCI-H23 lung
[44] = tested on: MCF7 breast
[45] = tested on: SNB-75 CNS
[46] = tested on: DU-145 prostate
[47] = tested on: UACC-257 melanoma
[48] = tested on: EKVX NSCLC
[49] = tested on: U251 CNS
[50] = tested on: CAKI-1 renal
[51] = tested on: 786-0 renal
[52] = tested on: SN12C renal

Nc1nnc2cc(Cl)ccc2n1
> 100 µM: TGI [1] | TGI [2] | TGI [3] | TGI [4] | TGI [5] | TGI [6] | TGI [7] | TGI [8] | TGI [9] | TGI [10] | TGI [11] | TGI [12] | TGI [13] | TGI [14] | TGI [15] | TGI [16] | TGI [17] | TGI [18] | TGI [19] | TGI [20] | TGI [21] | TGI [22] | TGI [23] | TGI [24] | TGI [25] | TGI [26] | TGI [27] | TGI [28] | TGI [29] | TGI [30] | TGI [31] | TGI [32] | TGI [33] | TGI [35] | TGI [36] | TGI [37] | TGI [38] | TGI [39] | TGI [40] | TGI [41] | TGI [42] | TGI [43] | TGI [44] | TGI [45] | TGI [46] | TGI [47] | TGI [48] | TGI [49] | TGI [50] | TGI [51] | TGI [52]
47.6 µM: TGI [34]
inactive: GI50 [1] 24.6 µM | GI50 [2] > 100 µM | GI50 [3] > 100 µM | GI50 [4] > 100 µM | GI50 [5] 30.2 µM | GI50 [6] > 100 µM | GI50 [7] > 100 µM | GI50 [8] > 100 µM | GI50 [9] 24.4 µM | GI50 [10] > 100 µM | GI50 [11] > 100 µM | GI50 [12] > 100 µM | GI50 [13] > 100 µM | GI50 [14] > 100 µM | GI50 [15] > 100 µM | GI50 [16] > 100 µM | GI50 [17] 73.2 µM | GI50 [18] > 100 µM | GI50 [19] > 100 µM | GI50 [20] > 100 µM | GI50 [21] > 100 µM | GI50 [22] > 100 µM | GI50 [23] > 100 µM | GI50 [24] > 100 µM | GI50 [25] > 100 µM | GI50 [26] > 100 µM | GI50 [27] > 100 µM | GI50 [28] > 100 µM | GI50 [29] > 100 µM | GI50 [30] > 100 µM | GI50 [31] > 100 µM | GI50 [32] > 100 µM | GI50 [33] 74 µM | GI50 [34] 3.56 µM | GI50 [35] 34.3 µM | GI50 [36] > 100 µM | GI50 [37] > 100 µM | GI50 [38] > 100 µM | GI50 [39] > 100 µM | GI50 [40] > 100 µM | GI50 [41] > 100 µM | GI50 [42] > 100 µM | GI50 [43] > 100 µM | GI50 [44] > 100 µM | GI50 [45] 9.06 µM | GI50 [46] > 100 µM | GI50 [47] > 100 µM | GI50 [48] 23.6 µM | GI50 [49] > 100 µM | GI50 [50] > 100 µM | GI50 [51] > 100 µM | GI50 [52] 16 µM
